The values below come from patent publication US7842802B2, “Vinorelbine derivatives” (priority 2003, dated 2010).

In one assay the test system is SK-MEL-28. Briefly: NCI 60-cell line growth inhibition assay, SK-MEL-28. The assay is classed as cell-based. Conditions: Homo sapiens, Melanoma. From the text:
(§1) The following data in Table 4 summarize the growth inhibition properties of several compounds of the present invention against 60-human transformed cell lines.

A further assay deals with NCI/ADR-RES. Nature of the assay: NCI 60-cell line growth inhibition assay, NCI/ADR-RES. It counts as cell-based, human. The conditions noted are these: Breast.
Excerpt: as §1

The next assay concerns SN12C. Briefly: NCI 60-cell line growth inhibition assay, SN12C. It counts as cell-based, human. Conditions: Renal.
Excerpt: as §1

In a further assay the test system is HL-60(TB). Nature of the assay: NCI 60-cell line growth inhibition assay, HL-60(TB). The assay is classed as cell-based, human. The conditions noted are these: Leukemia.
Excerpt: as §1

For the next assay, the system named is M14. Nature of the assay: NCI 60-cell line growth inhibition assay, M14. It counts as cell-based, human. The conditions noted are these: Melanoma.
Excerpt: as §1

For a further assay, the system named is ACHN. Nature of the assay: NCI 60-cell line growth inhibition assay, ACHN. The assay is classed as cell-based, human. Conditions: Renal.
Excerpt: as §1

A further assay relates to OVCAR-5. Nature of the assay: NCI 60-cell line growth inhibition assay, OVCAR-5. The conditions noted are these: Homo sapiens, Ovarian. It counts as cell-based.
Excerpt: as §1

Another assay deals with EKVX. Briefly: NCI 60-cell line growth inhibition assay, EKVX. Conditions: Homo sapiens, Non-Small Cell Lung. It counts as cell-based.
Excerpt: as §1

A further assay relates to NCI-H522. Briefly: NCI 60-cell line growth inhibition assay, NCI-H522. The assay is classed as cell-based, human. Conditions: Non-Small Cell Lung.
Excerpt: as §1

For the next assay, the system named is SW-620. Briefly: NCI 60-cell line growth inhibition assay, SW-620. It counts as cell-based, human. The conditions noted are these: Colon.
Excerpt: as §1

Another assay deals with OVCAR-4. Briefly: NCI 60-cell line growth inhibition assay, OVCAR-4. It counts as cell-based. Conditions: Homo sapiens, Ovarian.
Excerpt: as §1

Another assay has as its system PC-3. Nature of the assay: NCI 60-cell line growth inhibition assay, PC-3. The assay is classed as cell-based, human. Conditions: Prostate.
Excerpt: as §1

The next assay has as its system SNB-19. Nature of the assay: NCI 60-cell line growth inhibition assay, SNB-19. The conditions noted are these: Homo sapiens, CNS. The assay is classed as cell-based.
Excerpt: as §1

A further assay relates to MCF7. Nature of the assay: NCI 60-cell line growth inhibition assay, MCF7. It counts as cell-based, human. The conditions noted are these: Breast.
Excerpt: as §1

The next assay relates to MOLT-4. Nature of the assay: NCI 60-cell line growth inhibition assay, MOLT-4. The conditions noted are these: Homo sapiens, Leukemia. The assay is classed as cell-based.
Excerpt: as §1

A further assay relates to SK-MEL-5. Briefly: NCI 60-cell line growth inhibition assay, SK-MEL-5. It counts as cell-based. The conditions noted are these: Homo sapiens, Melanoma.
Excerpt: as §1

Another assay concerns SK-OV-3. Briefly: NCI 60-cell line growth inhibition assay, SK-OV-3. It counts as cell-based. The conditions noted are these: Homo sapiens, Ovarian.
Excerpt: as §1

The subject of another assay is HCC-2998. Briefly: NCI 60-cell line growth inhibition assay, HCC-2998. The assay is classed as cell-based. The conditions noted are these: Homo sapiens, Colon.
Excerpt: as §1

The next assay concerns COLO 205. Briefly: NCI 60-cell line growth inhibition assay, COLO 205. It counts as cell-based. Conditions: Homo sapiens, Colon.
Excerpt: as §1

For a further assay, the system named is HCT-116. Nature of the assay: NCI 60-cell line growth inhibition assay, HCT-116. It counts as cell-based, human. The conditions noted are these: Colon.
Excerpt: as §1

The subject of a further assay is CAKI-1. Briefly: NCI 60-cell line growth inhibition assay, CAKI-1. Conditions: Renal. It counts as cell-based, human.
Excerpt: as §1

Another assay relates to BT-549. Nature of the assay: NCI 60-cell line growth inhibition assay, BT-549. The assay is classed as cell-based, human. Conditions: Breast.
Excerpt: as §1

In another assay the test system is NCI-H322M. Nature of the assay: NCI 60-cell line growth inhibition assay, NCI-H322M. The assay is classed as cell-based, human. Conditions: Non-Small Cell Lung.
Excerpt: as §1

A further assay has as its system 786-0. Nature of the assay: NCI 60-cell line growth inhibition assay, 786-0. The assay is classed as cell-based, human. The conditions noted are these: Renal.
Excerpt: as §1

A further assay has as its system A498. Briefly: NCI 60-cell line growth inhibition assay, A498. The assay is classed as cell-based, human. The conditions noted are these: Renal.
Excerpt: as §1

The subject of the next assay is OVCAR-3. Nature of the assay: NCI 60-cell line growth inhibition assay, OVCAR-3. It counts as cell-based, human. The conditions noted are these: Ovarian.
Excerpt: as §1

The GI50 is the concentration that inhibits growth by half. A higher GI50 goes with less potent growth inhibition. On to `CCC1=C[C@H]2CN(C1)Cc1c([nH]c3ccc(I)cc13)[C@@](C(=O)OC)(c1cc3c(cc1OC)N(C)[C@H]1[C@@](O)(C(=O)OC)[C@H](OC(C)=O)C4C(CC)=CCN5CC[C@]31[C@H]45)C2` (some centres unmarked) [Example 2, 11′-iodovinorelbine], for which the GI50 in the assay with SK-MEL-28 is 91.4 nM; in the assay on NCI/ADR-RES (Homo sapiens) it was 5280 nM; with SN12C (Homo sapiens), 70.8 nM; in the assay on HL-60(TB) (Homo sapiens), 71 nM; in the assay with M14 (Homo sapiens), greater than 100000 nM; in the assay on ACHN (Homo sapiens), 1430 nM. The GI50 with OVCAR-5 was 225 nM; in the assay with EKVX it was 72.6 nM; in the assay with NCI-H522 (Homo sapiens) it was less than 10 nM; with SW-620 (Homo sapiens) it was 37.8 nM; with OVCAR-4 it was 264 nM; in the assay with PC-3 (Homo sapiens) it was 57.3 nM. Also, the GI50 in the assay with SNB-19 was 62.5 nM; with MCF7 (Homo sapiens), 11.3 nM; with MOLT-4, 24.1 nM; in the assay with SK-MEL-5 it was 18.8 nM; in the assay with SK-OV-3, 63.3 nM; in the assay on HCC-2998 it was less than 10 nM. Further, in the assay with COLO 205, halving of growth (GI50) required 17.9 nM.

Regarding 11′-bromovinorelbine [Example 1], the GI50 is 152 nM in the assay with NCI/ADR-RES; less than 10 nM with SN12C; less than 10 nM in the assay on HL-60(TB); less than 10 nM in the assay with M14; 3230 nM with ACHN; less than 10 nM in the assay with HCT-116. Further, the GI50 with CAKI-1, in the assay with NCI-H522, in the assay on SW-620, in the assay with PC-3, in the assay with BT-549 and in the assay with MCF7 was less than 10 nM throughout. In addition, the GI50 with NCI-H322M, in the assay with 786-0, in the assay on A498 and in the assay on OVCAR-3 was less than 10 nM each time.
